Source: patent US8609858B2, “Spiro derivatives of parthenin as novel anticancer agents” (Council of Scientific & Industrial Research, priority 2008, dated 2013)

Legend:
DU-145 = experiment: In vitro cytotoxicity screening (sulphodamine B dye), DU-145; assay type: cell-based; conditions: Homo sapiens; DU-145 prostate cancer cell line
Method: (§1) Cells at sub confluent stage were harvested from the flask by treatment with trypsin (0.5% in PBS containing 0.02% EDTA) for determination of cytotoxicity. […] The cell suspensions of required cell density were prepared in complete growth medium with gentamycin (50 μg/ml) for determination of cytotoxicity. The cells (100 μl/well) were inoculated in 96 well tissue culture plates. The cells were allowed to grow for 24 hrs temperature of 37° C. and in a humidified atmosphere of 5% CO2 in air. Stock solution of (20 mM) of test material was prepared in DMSO. The stock solution was serially diluted with complete growth medium containing 50 μg/ml of gentamycin to obtain […] working test solutions of 1., 2, 5, 10, 50 and 100 μM.
(§2) The media were supplemented with FCS (10%), penicillin (100 Units/ml), streptomycin (100 μg/ml) and glutamine (2 mM) and cells were grown in CO2 incubator (Hera cell, Heraeus, USA) at 37° C. with 90% humidity and 5% CO2.

PC-3 = experiment: In vitro cytotoxicity screening (sulphodamine B dye), PC-3; assay type: cell-based; conditions: Homo sapiens; PC-3 prostate cancer cell line
Method: as §1, §2

SW-620 = experiment: In vitro cytotoxicity screening (sulphodamine B dye), SW-620; assay type: cell-based; conditions: Homo sapiens; SW-620 colon cancer cell line
Method: as §1, §2

Row | SMILES | melting point | IC50 (DU-145) | IC50 (PC-3) | IC50 (SW-620)
1 | COc1ccc(N2CC23C(=O)O[C@@H]2[C@H]3CC[C@H](C)[C@]3(O)C=CC(=O)[C@@]23C)cc1 (stereo partly shown) | 245 to 247 °C |  |  | 
2 | Cc1ccc(N2CC23C(=O)O[C@@H]2[C@H]3CC[C@H](C)[C@]3(O)C=CC(=O)[C@@]23C)cc1 (stereo partly shown) | 241 to 242 °C |  |  | 
3 | COc1ccc(C2=NOC3(C2)C(=O)O[C@@H]2[C@H]3CC[C@H](C)[C@]3(O)C=CC(=O)[C@@]23C)cc1 (stereo partly shown) [Compound -1] |  | 20 µM | 35 µM | 41 µM
4 | C[C@H]1CC[C@@H]2[C@@H](OC(=O)C23CC(c2ccc(Cl)cc2)=NO3)[C@]2(C)C(=O)C=C[C@@]12O (stereo partly shown) [Compound -2] | 138.2 °C | 43 µM | 49 µM | 51 µM
5 | C[C@H]1CC[C@@H]2[C@@H](OC(=O)C23CC(c2ccc(N(C)C)cc2)=NO3)[C@]2(C)C(=O)C=C[C@@]12O (stereo partly shown) [Compound -4] |  |  | 6.33 µM | 
6 | C[C@H]1CC[C@@H]2[C@@H](OC(=O)C23CC(c2ccc(O)cc2)=NO3)[C@]2(C)C(=O)C=C[C@@]12O (stereo partly shown) [Compound -5] | 129.2 °C | 93 µM |  | 89 µM
7 | C[C@H]1CC[C@@H]2[C@@H](OC(=O)C23CC(c2cccc([N+](=O)[O-])c2)=NO3)[C@]2(C)C(=O)C=C[C@@]12O (stereo partly shown) [Compound -11] |  | 51 µM | 55 µM | 49 µM
8 | C[C@H]1CC[C@@H]2[C@@H](OC(=O)C23CC(c2cccs2)=NO3)[C@]2(C)C(=O)C=C[C@@]12O (stereo partly shown) [Compound -12] |  | 19 µM | 29 µM | 34 µM
9 | Cc1ccccc1C1=NOC2(C1)C(=O)O[C@@H]1[C@H]2CC[C@H](C)[C@]2(O)C=CC(=O)[C@@]12C (stereo partly shown) [Compound -13] | 277 °C | 12 µM | 10 µM | 5 µM
10 | Cc1cccc(C2=NOC3(C2)C(=O)OC2C3CC[C@H](C)[C@]3(O)C=CC(=O)[C@@]23C)c1 (stereo partly shown) [Compound -14] |  |  | 66.6 µM | 
11 | C[C@H]1CC[C@@H]2[C@@H](OC(=O)C23CC(c2ccc(F)cc2)=NO3)[C@]2(C)C(=O)C=C[C@@]12O (stereo partly shown) [Compound -15] | 193 °C | 13 µM | 27 µM | 3.6 µM
12 | C[C@H]1CC[C@@H]2[C@@H](OC(=O)C23CC(c2ccc(C#N)cc2)=NO3)[C@]2(C)C(=O)C=C[C@@]12O (stereo partly shown) [Compound -16] | 147 °C | 26 µM | 32 µM | 53 µM
13 | C[C@H]1CC[C@@H]2[C@@H](OC(=O)C23CC(c2ccc(Cl)cc2)N(c2ccccc2)O3)[C@]2(C)C(=O)C=C[C@@]12O (stereo partly shown) [Compound -18] | 183 °C | 7 µM | 7.8 µM | 7.5 µM
14 | Cc1ccccc1C1CC2(ON1c1ccccc1)C(=O)O[C@@H]1[C@H]2CC[C@H](C)[C@]2(O)C=CC(=O)[C@@]12C (stereo partly shown) [Compound -19] | 181 °C | 5.6 µM | 6.4 µM | 6 µM
15 | C[C@H]1CC[C@@H]2[C@@H](OC(=O)C23CC(c2ccc(Br)cc2)N(c2ccccc2)O3)[C@]2(C)C(=O)C=C[C@@]12O (stereo partly shown) [Compound -20] | 185 °C | 6.3 µM | 5.8 µM | 6.7 µM
16 | Cc1ccc(C2CC3(ON2c2ccccc2)C(=O)O[C@@H]2[C@H]3CC[C@H](C)[C@]3(O)C=CC(=O)[C@@]23C)cc1 (stereo partly shown) [Compound -21] | 114 °C | 8.1 µM | 8.5 µM | 8.7 µM
17 | C[C@H]1CC[C@@H]2[C@@H](OC(=O)C23CC(c2ccccc2)N(c2ccccc2)O3)[C@]2(C)C(=O)C=C[C@@]12O (stereo partly shown) [Compound -23] | 170 °C | 5.6 µM | 5.7 µM | 5.8 µM

Row | SMILES | melting point | IC50 (DU-145) | IC50 (PC-3) | IC50 (SW-620)
18 | C[C@H]1CC[C@@H]2[C@@H](OC(=O)C23CC(c2ccc(F)cc2)N(c2ccccc2)O3)[C@]2(C)C(=O)C=C[C@@]12O (stereo partly shown) [Compound -24] | 154 °C | 6.4 µM | 5.7 µM | 7.3 µM
19 | COc1ccc(C2CC3(ON2c2ccccc2)C(=O)O[C@@H]2[C@H]3CC[C@H](C)[C@]3(O)C=CC(=O)[C@@]23C)cc1Br (stereo partly shown) [Compound -25] | 96 °C | 6.3 µM | 5.7 µM | 6.8 µM
20 | C[C@H]1CC[C@@H]2[C@@H](OC(=O)C23CC(c2ccc(C#N)cc2)N(c2ccccc2)O3)[C@]2(C)C(=O)C=C[C@@]12O (stereo partly shown) [Compound -26] | 116 °C | 5 µM | 4.8 µM | 4.8 µM
21 | COc1ccc(Br)cc1C1CC2(ON1c1ccccc1)C(=O)O[C@@H]1[C@H]2CC[C@H](C)[C@]2(O)C=CC(=O)[C@@]12C (stereo partly shown) [Compound -27] | 197 °C | 7.8 µM | 8.2 µM | 6.1 µM
22 | COc1ccc(C2CC3(ON2c2ccccc2)C(=O)O[C@@H]2[C@H]3CC[C@H](C)[C@]3(O)C=CC(=O)[C@@]23C)c(OC)c1 (stereo partly shown) [Compound -28] | 99 °C | 11 µM | 11 µM | 7.5 µM
23 | COc1cc(C2CC3(ON2c2ccccc2)C(=O)O[C@@H]2[C@H]3CC[C@H](C)[C@]3(O)C=CC(=O)[C@@]23C)cc(OC)c1OC (stereo partly shown) [Compound -29] | 119 °C | 5.6 µM | 8.6 µM | 5.7 µM
24 | Cc1cc(C2CC3(ON2c2ccccc2)C(=O)O[C@@H]2[C@H]3CC[C@H](C)[C@]3(O)C=CC(=O)[C@@]23C)cc(C)c1O (stereo partly shown) [Compound -30] | 108 °C |  |  | 
25 | C[C@H]1CC[C@@H]2[C@@H](OC(=O)C23CC(c2cccc(Cl)c2)N(c2ccccc2)O3)[C@]2(C)C(=O)C=C[C@@]12O (stereo partly shown) [Compound -31] | 180 °C | 7.4 µM | 8.2 µM | 6.1 µM
26 | C[C@H]1CC[C@@H]2[C@@H](OC(=O)C23CC(c2ccccc2[N+](=O)[O-])C(c2ccccc2)O3)[C@]2(C)C(=O)C=C[C@@]12O (stereo partly shown) [Compound -32] | 158 °C | 28 µM | 8.4 µM | 13 µM
27 | COc1ccccc1C1CC2(ON1c1ccccc1)C(=O)O[C@@H]1[C@H]2CC[C@H](C)[C@]2(O)C=CC(=O)[C@@]12C (stereo partly shown) [Compound -33] | 111 °C | 91 µM | 81 µM | 53 µM
28 | C[C@H]1CC[C@@H]2[C@@H](OC(=O)C23CN3c2ccccc2)[C@]2(C)C(=O)C=C[C@@]12O (stereo partly shown) [Compound -34] | 245 to 247 °C | 31.4 µM | 10.6 µM | 87.7 µM
29 | C[C@H]1CC[C@@H]2[C@@H](OC(=O)C23CN3c2cccc(Cl)c2)[C@]2(C)C(=O)C=C[C@@]12O (stereo partly shown) [Compound -35] |  | 39.5 µM | 86.1 µM | 48.4 µM
30 | COc1ccccc1N1CC12C(=O)O[C@@H]1[C@H]2CC[C@H](C)[C@]2(O)C=CC(=O)[C@@]12C (stereo partly shown) [Compound -37] |  |  | 52 µM | 47.3 µM
31 | Cc1cccc(N2CC23C(=O)O[C@@H]2[C@H]3CC[C@H](C)[C@@]3(O)C=CC(=O)[C@@]23C)c1 (stereo partly shown) [Compound -38] |  | 62.5 µM | 61.5 µM | 15 µM
32 | C[C@H]1CC[C@@H]2[C@@H](OC(=O)C23CN3c2cccc([N+](=O)[O-])c2)[C@]2(C)C(=O)C=C[C@@]12O (stereo partly shown) [Compound -40] | 241 to 242 °C |  | 10.1 µM | 61 µM
33 | Cc1ccccc1N1CC12C(=O)O[C@@H]1[C@H]2CC[C@H](C)[C@]2(O)C=CC(=O)[C@@]12C (stereo partly shown) [Compound -43] |  |  | 12.5 µM | 22 µM
34 | COc1ccc(C2=NOC3(C2)C(=O)O[C@@H]2[C@H]3CC[C@H](C)[C@]3(O)C=CC(=O)[C@@]23C)cc1OC (stereo partly shown) [Compound -80] | 151 °C | 84 µM |  | 86 µM
